From patent US20240408053A1, “ENTERITIS-SUPPRESSING COMPOSITION” (KOBE GAKUIN EDUCATIONAL FOUNDATION, priority 2021, published 2024)

Key:
ZO-1 [1] = assay: Immunofluorescence staining of ZO-1 in colon tissue, 4 weeks; type: in vivo, mice; conditions: group ES: 2.0% v/v ethanol diet + 2.5 mg sesaminol per day oral, group E significant decrease
Method: (§1) Next, in order to verify the longer-term effect of oral administration of sesaminol on ethanol-induced intestinal tight junction (TJ) dysfunction and leaky gut, histological analysis of colonic epithelial TJ proteins (ZO-1, Occludin, and Claudin-1) and analysis of the plasma LPS level were performed using the mice in each group (groups C, S, E, and ES) described in Example 7. Histological analysis was performed by immunofluorescence staining with anti-ZO-1, anti-Occludin, and anti-Claudin-1 antibodies, followed by observation under a fluorescence microscope. The Plasma LPS level was measured according to the method described in Example 6.

occludin = assay: Immunofluorescence staining of Occludin in colon tissue, 4 weeks; type: in vivo, mice; conditions: group ES: 2.0% v/v ethanol diet + 2.5 mg sesaminol per day oral, group E significant decrease
Method: as §1

ZO-1 [2] = assay: Western blotting of ZO-1 in colon tissue; type: in vivo, mice; conditions: group ES: 2.0% v/v ethanol diet + 2.5 mg sesaminol per day oral, 2 weeks, vs group E; lower than group C
From the text: (§2) Acetaldehyde, which accumulates during ethanol metabolism, is known to disrupt intestinal tight junctions (TJs) via dissociation of colonic epithelium TJ proteins (ZO-1, occludin, and claudin-1) from the cytoskeleton. […] Therefore, whether oral administration of sesaminol would affect ethanol-induced intestinal barrier dysfunction was examined by analyzing the expression levels of colonic epithelial TJ proteins and the plasma LPS level in the mice in the four groups (groups C, S, E, and ES).
WB was performed in the same manner as in Example 4 above. The following primary antibodies were used. • Anti-mouse zonula occludens-1 protein (ZO-1) rabbit polyclonal antibody • Anti-mouse occludin rabbit polyclonal antibody • Anti-mouse claudin-1 rabbit polyclonal antibody

[3] = TG amount in the liver, 4 weeks; type: in vivo, mice; conditions: mean ±SD
Method: The liver function and plasma lipid level in the mice in each group were examined by measuring the percentage of the liver weight relative to the body weight, the triglyceride (TG) concentration in the liver, the aspartate aminotransferase (AST) activity in the plasma, the alanine aminotransferase (ALT) activity in the plasma, and the TG concentration in the plasma of the mice in each group.
Each liver was homogenized at 4° C., and TG was extracted according to the product protocol of a reagent kit for TG extraction from tissue (Lipid Droplet Isolation Kit, produced by Cell Biolabs, Inc.). The amounts of TG and protein in each extracted sample were quantified according to the product protocol of each measuring reagent and converted to the TG amount (mg) per protein (g) for evaluation.

[4] = tested on: ethanol-induced lesion in mouse liver; assay: HE or Oil Red O staining of liver sections (ethanol-induced alcoholic steatohepatitis); type: in vivo, mice; conditions: group ES: 2.0% v/v ethanol diet + 2.5 mg sesaminol per day oral, 4 weeks; group E significant increase
From the text: Additionally, liver sections of the mice in each group (groups C, E, S, and ES) were stained with HE or Oil Red 0, and observed under a microscope.
Liver tissue samples were each fixed in a 10% v/v neutral formaldehyde solution overnight at room temperature and paraffin-embedded. The liver tissue sections were then stained with HE reagent, and frozen tissue sections were stained with Oil Red O reagent. Each stained specimen was observed under a microscope and subjected to image analysis.

LPS = assay: Plasma LPS level (LAL assay), 2 weeks; type: in vivo, mice; conditions: group ES: 2.0% v/v ethanol diet + 2.5 mg sesaminol per day oral, vs group E, higher than group C
From the text: as §2
The plasma LPS concentration was measured with a limulus amebocyte lysate (LAL) assay.

MCP-1 = MCP-1 expression in colon tissue (qRT-PCR, ELISA); type: in vivo, mice; conditions: group ES: 2.0% v/v ethanol diet + 2.5 mg sesaminol per day oral, 2 weeks, vs group E; higher than group C
From the text: It has been reported that chronic consumption of an excessive amount of ethanol can induce inflammation associated with tumor formation in colon tissue. Therefore, in order to verify whether oral administration of sesaminol has a preventive effect on ethanol-induced colitis, the expression levels of inflammatory cytokines (TNF-α and IL-6) and chemokine (MCP-1) in the large intestinal lamina propria of the mice in the four groups (groups C, S, E, and ES) were examined by qRT-PCR and ELISA. The NF-κB activity in the mice in the four groups was also examined. NF-κB is a transcription factor that is involved in expression of genes regulating inflammation and is activated by exposure of immune cells to pro-inflammatory factors.
Total RNA was extracted from colon tissue samples. […]
A colon tissue sample (100 mg) was homogenized in 1 mL of an M-PER mammalian protein extraction reagent (Pierce) containing a diluent of a protease inhibitor cocktail (Nacalai Tesque, Inc.), and the resulting homogenate was centrifuged at 20,000× g at 4° C. for 15 minutes. The protein concentration of the supernatant was measured with a protein assay reagent (Bio-Rad Laboratories, Inc.), and equal amounts of proteins were used for analysis of the expression levels of TNF-α, IL-6, and MCP-1 by ELISA.

[5] = Change in body weight and general observation, 4 weeks; type: in vivo; conditions: groups S and ES (2.5 mg sesaminol per day, oral) vs groups C and E
Method: Ten-week-old C57BL/6NCr male mice were divided into four groups (eight mice per group), i.e., group C, group S, group E, and group ES, and fed daily for 4 weeks in the same manner as in Example 1.
The body weights of the mice in the above four groups (group C, group S, group E, and group ES) were measured every week.

[6] = Amount of short-chain fatty acids in mouse feces (GC-FID); type: in vivo, mice; conditions: 4 weeks
Method: Short-chain fatty acids are metabolites of intestinal bacteria. The amounts of short-chain fatty acids (acetic acid, propionic acid, and butyric acid) in feces of the mice in each group (groups C, E, S, and ES) were measured.
The amounts of short-chain fatty acids in the mouse feces were measured by outsourcing to TechnoSuruga Laboratory Co., Ltd.
Immediately after collection, mouse feces was treated with liquid nitrogen and stored at −80° C. While the fecal samples were frozen, an amount of 100 mg was crushed with beads and formed into a powder, and components extracted with ethyl acetate treatment were used as detection samples. For the measurement, a gas-chromatography-flame ionization detector system (Agilent 7890B GC, produced by Agilent technologies) was used, and the concentration of each short-chain fatty acid was calculated by comparison with the amount of standard substance.

[7] = group ES: 2.0% v/v ethanol diet + 2.5 mg sesaminol per day oral

## Oc1cc2c(cc1C1OCC3C(c4ccc5c(c4)OCO5)OCC13)OCO2 (stereo not shown) [Sesaminol]
ZO-1 [1]
  protein level of ZO-1 in colon tissue (fluorescence microscope observation): improvement in all of those levels
occludin
  protein level of Occludin in colon tissue (fluorescence microscope observation): improvement in all of those levels
ZO-1 [2]
  expression level of ZO-1: significantly higher than those in group E
[3]; EtOH (2.0% v/v) + Sesaminol group ES
  Liver TG: 51.8 ± 9.5 mg/g of protein
[3]; Sesaminol (2.5 mg/d) group S
  Liver TG: 38.1 ± 12.4 mg/g of protein
[4]
  lipid droplets in Oil Red O-stained liver tissue: decrease in lipid droplets
LPS
  plasma LPS level: significantly lower than that in group E
MCP-1
  expression level of MCP-1 (mRNA by qRT-PCR, protein by ELISA): significantly lower than those in group E
[5]
  body-weight changes between the groups: No significant differences
[6]; [7]
  acetic acid in the feces: significant increase
  propionic acid in the feces: significant increase
[6]; group ES: 2.0% v/v ethanol diet + 2.5 mg sesaminol per day oral, group E significant decrease
  amount of butyric acid in the feces: increase in the amount of butyric acid to the same level as that in group C
[6]; group S: 2.5 mg sesaminol per day oral, no ethanol, vs all other groups
  amount of short-chain fatty acids (acetic acid, propionic acid, butyric acid) in the feces: significant increase in the amount of short-chain fatty acids in the feces compared with all the other groups
